Reference: PubChem BioAssay AID1918939 (Molecular Pharmacology Branch, DTP, NCI, 2023)

System: 653999-131-R-J2-PDC complex spheroid viability
Assay: Anticancer human tumor 653999-131-R-J2-PDC patient-derived lung adenocarcinoma cell line growth inhibition
Conditions: for IC50: curve of first compound; for viability, T/C: stronger effect = lower value
How it was run: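 Drug combinations with the LSD1 inhibitor iadademstat tested on tumor cells co-cultured as spheroids with endothelial cells and mesenchymal stem cells. Concentrations descended in half-log increments from clinical Cmax or 10 microM.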

[1] = second compound 0.1 µM, first compound 0.0316 µM
[2] = second compound 0.1 µM, first compound 0.1 µM
[3] = second compound 0.1 µM, first compound 0.316 µM
[4] = second compound 0.1 µM, first compound 1 µM
[5] = second compound 0.1 µM, first compound 3.16 µM
[6] = second compound 0.1 µM, first compound 10 µM
[7] = second compound 0.316 µM, first compound 0.0316 µM
[8] = second compound 0.316 µM, first compound 0.1 µM
[9] = second compound 0.316 µM, first compound 0.316 µM
[10] = second compound 0.316 µM, first compound 1 µM
[11] = second compound 0.316 µM, first compound 3.16 µM
[12] = second compound 0.316 µM, first compound 10 µM
[13] = second compound 1 µM, first compound 0.0316 µM
[14] = second compound 1 µM, first compound 0.1 µM
[15] = second compound 1 µM, first compound 0.316 µM
[16] = second compound 1 µM, first compound 1 µM
[17] = second compound 1 µM, first compound 3.16 µM
[18] = second compound 1 µM, first compound 10 µM
[19] = second compound 3.16 µM, first compound 0.0316 µM
[20] = second compound 3.16 µM, first compound 0.1 µM
[21] = second compound 3.16 µM, first compound 0.316 µM
[22] = second compound 3.16 µM, first compound 1 µM
[23] = second compound 3.16 µM, first compound 3.16 µM
[24] = second compound 3.16 µM, first compound 10 µM
[25] = second compound 10 µM, first compound 0.0316 µM
[26] = second compound 10 µM, first compound 0.1 µM
[27] = second compound 10 µM, first compound 0.316 µM
[28] = second compound 10 µM, first compound 1 µM
[29] = second compound 10 µM, first compound 3.16 µM
[30] = second compound 10 µM, first compound 10 µM
[31] = second compound 0.1 µM, first compound 0.00316 µM
[32] = second compound 0.1 µM, first compound 0.01 µM
[33] = second compound 0.316 µM, first compound 0.00316 µM
[34] = second compound 0.316 µM, first compound 0.01 µM
[35] = second compound 1 µM, first compound 0.00316 µM
[36] = second compound 1 µM, first compound 0.01 µM
[37] = second compound 3.16 µM, first compound 0.00316 µM
[38] = second compound 3.16 µM, first compound 0.01 µM
[39] = second compound 10 µM, first compound 0.00316 µM
[40] = second compound 10 µM, first compound 0.01 µM
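Further: spheroids exposed to agents for seven days before readout.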

SMILES	IC50 (second compound 0.1 µM) [nM]	IC50 (second compound 0.316 µM) [nM]	IC50 (second compound 1 µM) [nM]	IC50 (second compound 3.16 µM) [nM]	IC50 (second compound 10 µM) [nM]	viability, T/C [1] [%]	viability, T/C [2] [%]	viability, T/C [3] [%]	viability, T/C [4] [%]	viability, T/C [7] [%]	viability, T/C [8] [%]	viability, T/C [9] [%]	viability, T/C [10] [%]	viability, T/C [13] [%]	viability, T/C [14] [%]	viability, T/C [15] [%]	viability, T/C [16] [%]	viability, T/C [19] [%]	viability, T/C [20] [%]	viability, T/C [21] [%]	other results
CC(C)c1c(-c2ccccc2)nc2c(C#N)c[nH]n2c1=O + NC1CC1c1ccc(-c2cccc(O)c2)cc1	> 10000	> 10000	> 10000	> 10000	> 10000	87.3	96.5	89.1	76.9	84	83.7	90.9	74.8	73.1	87.2	86.1	77.8	84.2	72.5	80.2	viability, T/C [5]: 80.1%; viability, T/C [6]: 80.5%; viability, T/C [11]: 64.2%; viability, T/C [12]: 66.2%; viability, T/C [17]: 66.7%; viability, T/C [18]: 72.2%; viability, T/C [22]: 68.7%; viability, T/C [23]: 77.5%; viability, T/C [24]: 76.8%; viability, T/C [25]: 80.8%; viability, T/C [26]: 73.8%; viability, T/C [27]: 77.4%; viability, T/C [28]: 76.5%; viability, T/C [29]: 68.9%; viability, T/C [30]: 65.6%
CC1COCCN1c1cc(-c2ccnn2C)c2ccnc(-c3ccn[nH]3)c2n1 (stereo not given) + NC1CC1c1ccc(-c2cccc(O)c2)cc1	5.31	< 3.16	< 3.16	< 3.16	< 3.16	44.3	29.7	42.7	45.7	36.7	36.6	36.1	48.5	36.8	32.7	31	36.3	36.5	28.8	36.1	viability, T/C [31]: 52%; viability, T/C [32]: 50%; viability, T/C [33]: 47.7%; viability, T/C [34]: 44.4%; viability, T/C [35]: 45.5%; viability, T/C [36]: 47%; viability, T/C [37]: 49.5%; viability, T/C [38]: 45.5%; viability, T/C [22]: 39.7%; viability, T/C [39]: 47.5%; viability, T/C [40]: 46.6%; viability, T/C [25]: 39.5%; viability, T/C [26]: 29%; viability, T/C [27]: 29.7%; viability, T/C [28]: 34.7%
COc1ccc([C@@H](O)c2cc(-c3ncnc4cc(N5CCOCC5)ccc34)c(F)cc2Cl)nn1 + NC1CC1c1ccc(-c2cccc(O)c2)cc1	2810	1250	972	1130	968	79.2	84.6	72.1	55	74.1	86.5	65.8	51.1	85.6	74.3	70.2	49.3	77.4	71.5	63.2	viability, T/C [5]: 54.1%; viability, T/C [6]: 28.5%; viability, T/C [11]: 40.7%; viability, T/C [12]: 26.5%; viability, T/C [17]: 31.9%; viability, T/C [18]: 24.4%; viability, T/C [22]: 49.5%; viability, T/C [23]: 39.4%; viability, T/C [24]: 22.6%; viability, T/C [25]: 71.2%; viability, T/C [26]: 70.6%; viability, T/C [27]: 58.2%; viability, T/C [28]: 53.3%; viability, T/C [29]: 33%; viability, T/C [30]: 26.1%
Nc1ncn(C2CC(O)C(CO)O2)c(=O)n1 (stereo not given) + NC1CCC(NC2CC2c2ccccc2)CC1	> 1000	> 1000	> 1000	> 1000	> 1000	91.4	69	68.9	70.7	87.5	82.7	75.8	64.4	86.9	75.1	81.8	62	94.2	81.4	77.4	viability, T/C [31]: 102%; viability, T/C [32]: 89.1%; viability, T/C [33]: 93.3%; viability, T/C [34]: 105%; viability, T/C [35]: 92.1%; viability, T/C [36]: 86.5%; viability, T/C [37]: 87.1%; viability, T/C [38]: 87.6%; viability, T/C [22]: 78%; viability, T/C [39]: 93.5%; viability, T/C [40]: 99.3%; viability, T/C [25]: 85.8%; viability, T/C [26]: 86.6%; viability, T/C [27]: 73.3%; viability, T/C [28]: 82.5%
